From US6787551B2, “Thiazolidinedione derivatives and pharmaceutical composition comprising the same” (Chong Kun Dang Pharmaceutical Corporation, priority 2002, dated 2004)

Tests used:
[1] = tested on: differentiated 3T3-L1 cell; assay: 2-Deoxy-D-[2,6-3H] glucose uptake assay; type: cell-based; conditions: differentiated 3T3-L1 cells, 24 h with compound, 0.5 nM insulin; concentration giving 50% of maximum enhancement of insulin activation; read-out: 2-deoxyglucose uptake (EC50 nM)
Experimental: 1) 2-Deoxy-D-[2,6-3H] glucose uptake assay (in differentiated 3T3-L1 cell)
Undifferentiated adipocyte 3T3-L1 cells were inoculated in a 24-well plate and cultivated in a CO2 incubator at 37° C. To induce differentiation of the undifferentiated adipocytes, the cells were then incubated in a differentiation medium. After adding a certain concentration of each of the test compounds to the medium, the cells were again incubated for 24 hours. After removing the medium, the cells were washed with phosphate buffer, and 0.5 nM of insulin in phosphate buffer was added to the washed cells, followed by incubation for 40 minutes. Then, 0.5 uCi of 2-deoxy-D-[2,6-3H] glucose per well was again added to the cells, which were let stand for 4 minutes. Then, the cells were washed with phosphate buffer, and cell lysis buffer was added, so as to dissolve the cell membranes. The cell sample was placed into a liquid scintillation cocktail solution. The radioactivity of the sample was counted by a liquid scintillation counter.

3T3-L1 cells = assay: Triglyceride accumulation assay; type: cell-based; conditions: 4 days with compound, concentration giving 50% of maximum enhancement of rosiglitazone activation
Experimental: 2) Triglyceride accumulation assay (in 3T3-L1 cells)
Undifferentiated adipocyte 3T3-L1 cells were inoculated in a 24-well plate and cultivated in a CO2 incubator at 37° C. To induce differentiation of the undifferentiated adipocytes, the cells were then incubated in a differentiation medium for 48 hours. After adding a certain concentration of each of the test compounds to the differentiation medium, the cells were again incubated for 4 days. Then, the final cell sample was placed into 200 μl of 2-propanol. The amount of triglyceride in the cells were measured by Triglyceride Kit [YEONGDONG PHARMACEUTICAL CO. LTD., Korea] commercially available.

[2] = tested on: mice with diabetes (KK/Ay); assay: Blood glucose- and blood lipid-lowering action in mice with diabetes; type: in vivo; conditions: male KK/Ay mice, daily oral administration for 5 days; for Blood glucose (ED25): dose reducing blood glucose by 25%; for Triglyceride (ED25): dose reducing triglyceride by 25%
Experimental: Male mice with diabetes (KK/Ay: 10 weeks old, 5 animals/group) were housed and given free access to water and food. The animals received a daily oral administration of the test compounds for 5 days. After the last dose, a blood sample was drawn via the orbital sinus.
The plasma was analyzed for blood glucose content using the Glucose-E kit (YEONGDONG PHARMACEUTICAL CO. LTD., Korea), and for triglyceride content using the Triglyceride kit (YEONGDONG PHARMACEUTICAL CO. LTD., Korea).

[3] = tested on: primary cultured rat hepatocytes
Experimental: Hepatocytes isolated from rat were inoculated in a collagen-coated 24 well plate and was incubated in a CO2 incubator at 37° C. for 24 hours. Then, a certain concentration of each of the test compounds was added, and the cells were again incubated for 24 hours. The cells were then incubated in a 0.4% neutral red containing medium for 4 hours and washed once with phosphate buffer. 0.5 ml of a solution of 1% acetic acid-50% ethanol was added to the cells, which were let stand. 200 ul of the cell sample was taken and absorbance was measured at 570 nm. The cytotoxicity assay performed on hepatocytes was measured as 25% toxic concentration (TC25, uM). Then, the safety index, i.e. the TC25 value in the cytotoxicity assay in hepatocyte/the EC50 value in the triglyceride accumulation assay, was calculated.

In the case of “5-(4-[2(N-methyl-N-(6-(4-anilinyl)pyrimidinyl)amino)ethoxy]benzyl)-2,4-thiazolidinedione [Ex. 21]”, the EC50 [1] is reported as 12.8 nM, the EC50 (3T3-L1 cells) is reported as 7.5 nM and the “Blood glucose (ED25)” value [2] is reported as 2.6 mg/kg. The “Triglyceride (ED25)” value [2] was 6.2 mg/kg, the “Cytotoxicity in hepatocyte (TC25 uM)” value [3] was 81000 nM and the “Safety index (TC25 nM/EC50 nM)” value [3] was 10800.

“5-(4-[2(N-methyl-N-(6-(4-thiophenoxy)pyrimidinyl)amino)ethoxy]benzyl)-2,4-thiazolidinedione [Ex. 32]” was tested, and the EC50 [1] was 5.9 nM, the EC50 (3T3-L1 cells) was 3.2 nM and the “Blood glucose (ED25)” value [2] was 1.5 mg/kg. The “Triglyceride (ED25)” value [2] was 12.3 mg/kg, the “Cytotoxicity in hepatocyte (TC25 uM)” value [3] was 89000 nM and the “Safety index (TC25 nM/EC50 nM)” value [3] was 27813.

In the case of “5-(4-[2-(N-methyl-N-(2-(4-anilinyl)pyridinyl)amino)ethoxy]benzyl)-2,4-thiazolidinedione [Ex. 38]”, the EC50 [1] is reported as 10.5 nM, the EC50 (3T3-L1 cells) is reported as 5.5 nM and the “Blood glucose (ED25)” value [2] is reported as 1.5 mg/kg. The “Triglyceride (ED25)” value [2] was 7.8 mg/kg, the “Cytotoxicity in hepatocyte (TC25 uM)” value [3] was 71000 nM and the “Safety index (TC25 nM/EC50 nM)” value [3] was 12909.

“5-(4-[2-(N-methyl-N-(2-(4-anilinyl)pyridinyl)amino)ethoxy]benzylidene)-2,4-thiazolidinedione [Ex. 19]” was tested, and the EC50 [1] was 48.2 nM, the EC50 (3T3-L1 cells) was 20.1 nM and the “Blood glucose (ED25)” value [2] was 3.8 mg/kg. The “Triglyceride (ED25)” value [2] was 15.6 mg/kg, the “Cytotoxicity in hepatocyte (TC25 uM)” value [3] was 81000 nM and the “Safety index (TC25 nM/EC50 nM)” value [3] was 4030.

“5-(4-[2-(N-methyl-N-(2-(4-thiophenoxy)pyridinyl)amino)ethoxy]benzyl)-2,4-thiazolidinedione [Ex. 37]” was tested, and the EC50 [1] was 2.8 nM, the EC50 (3T3-L1 cells) was 1.2 nM and the “Blood glucose (ED25)” value [2] was 0.22 mg/kg. For the same substance, the “Triglyceride (ED25)” value [2] was 1.4 mg/kg, the “Cytotoxicity in hepatocyte (TC25 uM)” value [3] was 95000 nM and the “Safety index (TC25 nM/EC50 nM)” value [3] was 79167.
